Literature values as cited in patent US20120282187A1 (BOEHRINGER INGELHEIM INTERNATIONAL GMBH, priority 2008, published 2012).

How the values were obtained:
[1] = tested on: patients with atrial fibrillation; conditions: sub-cutaneous; cited from earlier work
[2] = tested on: patients with non-valvular atrial fibrillation; conditions: in vivo; cited from earlier work

Structure (SMILES)	efficacy compared to warfarin [1]	risk of bleeding compared to warfarin [1]	hepatotoxicity [2]
CO[C@H]1O[C@H](COS(=O)(=O)O)[C@@H](O[C@@H]2O[C@@H](C(=O)O)[C@@H](O[C@H]3O[C@H](COS(=O)(=O)O)[C@@H](O[C@@H]4O[C@H](C(=O)O)[C@@H](O[C@H]5O[C@H](COS(=O)(=O)O)[C@@H](OC)[C@H](OC)[C@H]5OC)[C@H](OC)[C@H]4OC)[C@H](OS(=O)(=O)O)[C@H]3OS(=O)(=O)O)[C@H](OC)[C@H]2OC)[C@H](OS(=O)(=O)O)[C@H]1OS(=O)(=O)O [idraparinux]	more effective than warfarin	substantially higher risk of bleeding	
CCOC(=O)CN[C@@H](C(=O)N1CC[C@H]1C(=O)NCc1ccc(/C(N)=N\O)cc1)C1CCCCC1 [ximelagatran]			hepatotoxic
